Laboratory results published in patent US20050069877A1, “Protein modification and maintenance molecules” (priority 2001, published 2005).

Key:
[1] = system: expression of SEQ ID NO:33 in human C3A liver cell line; assay: Microarray expression of SEQ ID NO:33 in compound-treated C3A liver cells; type: cell-based; details: human C3A liver cell line incubated for varying lengths of time with compound
From the text: The array elements are hybridized with polynucleotides in a biological sample. The polynucleotides in the biological sample are conjugated to a fluorescent label or other molecular tag for ease of detection. After hybridization, nonhybridized nucleotides from the biological sample are removed, and a fluorescence scanner is used to detect hybridization at each array element. […] The degree of complementarity and the relative abundance of each polynucleotide which hybridizes to an element on the microarray may be assessed.
Total RNA is isolated from tissue samples using the guanidinium thiocyanate method and poly(A)^+ RNA is purified using the oligo-(dT) cellulose method. Each poly(A)^+ RNA sample is reverse transcribed using MMLV reverse-transcriptase, 0.05 pg/μl oligo-(dT) primer (21 mer), 1× first strand buffer, 0.03 units/μl RNase inhibitor, 500 μM dATP, 500 μM dGTP, 500 μM dTTP, 40 μM dCTP, 40 μM dCTP-Cy3 (BDS) or dCTP-Cy5 (Amersham Biosciences). The reverse transcription reaction is performed in a 25 ml volume containing 200 ng poly(A)^+ RNA with GEMBRIGHT kits (Incyte). Specific control poly(A)^+ RNAs are synthesized by in vitro transcription from non-coding yeast genomic DNA. […]

[2] = greater than progesterone; cited from earlier work
[3] = intranasal; greater than those produced by hydrocortisone; cited from earlier work
[4] = system: expression of SEQ ID NO:35 in human peripheral blood mononuclear cells (PBMCs); assay: Microarray expression of SEQ ID NO:35 in prednisone-treated PBMCs; type: cell-based; details: PBMCs pooled from 6 healthy donors, 5 and 25 μM, 24 hours, compared to untreated controls
From the text: (§1) Full length cDNAs, Expressed Sequence Tags (ESTs), or fragments or oligomers thereof may comprise the elements of the microarray. Fragments or oligomers suitable for hybridization can be selected using software well known in the art such as LASERGENE software (DNASTAR). The array elements are hybridized with polynucleotides in a biological sample. The polynucleotides in the biological sample are conjugated to a fluorescent label or other molecular tag for ease of detection. After hybridization, nonhybridized nucleotides from the biological sample are removed, and a fluorescence scanner is used to detect hybridization at each array element. Alternatively, laser desorbtion and mass spectrometry may be used for detection of hybridization. The degree of complementarity and the relative abundance of each polynucleotide which hybridizes to an element on the microarray may be assessed. In one embodiment, microarray preparation and usage is described in detail below.
(§2) Total RNA is isolated from tissue samples using the guanidinium thiocyanate method and poly(A)^+ RNA is purified using the oligo-(dT) cellulose method. […]
(§3) Sequences of the present invention are used to generate array elements. […] Array elements are amplified in thirty cycles of PCR from an initial quantity of 1-2 ng to a final quantity greater than 5 μg. […]

[5] = system: expression of SEQ ID NO:44 in peripheral blood mononuclear cells; assay: Microarray expression of SEQ ID NO:44 in IL12-treated PBMCs; type: cell-based, human; details: PBMCs from a pool of healthy donors, 1 ng/ml, 24 hours
From the text: as §1, §2, §3

6α-methyl-17-hydroxyprogesterone [medroxyprogesterone]
expression of SEQ ID NO:33 [1]: reduced by at least two fold | pharmacological activity relative to progesterone [2]: about 15 times

C[C@H]1C[C@H]2[C@@H]3CCC4=CC(=O)C=C[C@]4(C)[C@@]3(Cl)[C@@H](O)C[C@]2(C)[C@@]1(O)C(=O)CO [beclomethasone]
expression of SEQ ID NO:33 [1]: reduced by at least two fold | anti-inflammatory and vasoconstrictive effects relative to hydrocortisone [3]: 5000 times

C[C@]12C=CC(=O)C=C1CC[C@@H]1[C@@H]2C(=O)C[C@@]2(C)[C@H]1CC[C@]2(O)C(=O)CO [prednisone]
expression of SEQ ID NO:35 [4]: decreased by at least two-fold

B1: IL12: pleiotropic cytokine produced by macrophages and B lymphocytes (protein, UniProt P29459 23-219; P29460 23-328, looked up)
Interleukin-12 subunit alpha: RNLPVATPDPGMFPCLHHSQNLLRAVSNMLQKARQTLEFYPCTSEEIDHEDITKDKTSTVEACLPLELTKNESCLNSRETSFITNGSCLASRKTSFMMALCLSSIYEDLKMYQVEFKTMNAKLLMDPKRQIFLDQNMLAVIDELMQALNFNSETVPQKSSLEEPDFYKTKIKLCILLHAFRIRAVTIDRVMSYLNAS
Interleukin-12 subunit beta: IWELKKDVYVVELDWYPDAPGEMVVLTCDTPEEDGITWTLDQSSEVLGSGKTLTIQVKEFGDAGQYTCHKGGEVLSHSLLLLHKKEDGIWSTDILKDQKEPKNKTFLRCEAKNYSGRFTCWWLTTISTDLTFSVKSSRGSSDPQGVTCGAATLSAERVRGDNKEYEYSVECQEDSACPAAEESLPIEVMVDAVHKLKYENYTSSFFIRDIIKPDPPKNLQLKPLKNSRQVEVSWEYPDTWSTPHSYFSLTFCVQVQGKSKREKKDRVFTDKTSATVICRKNASISVRAQDRYYSSSWSEWASVPCS
expression of SEQ ID NO:44 [5]: decreased by at least two-fold
